In PubChem BioAssay (NCI):
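Exposure lasted 48 hours, with cells grown in 96-well plates and compounds tested at five concentrations. TGI denotes the concentration required for complete inhibition of growth.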

Assays:
Experiment in all cases: growth of human tumour cells (NCI), 48 h
HOP-92 NSCLC = tested on: HOP-92 NSCLC
SK-OV-3 ovarian = tested on: SK-OV-3 ovarian
SF-539 CNS = tested on: SF-539 CNS
IGROV1 ovarian = tested on: IGROV1 ovarian
SK-MEL-5 melanoma = tested on: SK-MEL-5 melanoma
UACC-257 melanoma = tested on: UACC-257 melanoma
HOP-62 NSCLC = tested on: HOP-62 NSCLC
NCI-H460 lung = tested on: NCI-H460 lung
OVCAR-8 ovarian = tested on: OVCAR-8 ovarian
DMS 114 small cell lung = tested on: DMS 114 small cell lung
SN12C renal = tested on: SN12C renal
NCI-H522 lung = tested on: NCI-H522 lung
SNB-78 CNS = tested on: SNB-78 CNS
LOX IMVI melanoma = tested on: LOX IMVI melanoma
CAKI-1 renal = tested on: CAKI-1 renal
CCRF-CEM leukemia = tested on: CCRF-CEM leukemia
LXFL 529 NSCLC = tested on: LXFL 529 NSCLC
HOP-18 NSCLC = tested on: HOP-18 NSCLC
COLO 205 colon = tested on: COLO 205 colon
HT29 colon = tested on: HT29 colon
SF-295 CNS = tested on: SF-295 CNS
SW-620 colon = tested on: SW-620 colon
OVCAR-4 ovarian = tested on: OVCAR-4 ovarian
SK-MEL-28 melanoma = tested on: SK-MEL-28 melanoma
K-562 leukemia = tested on: K-562 leukemia
OVCAR-3 ovarian = tested on: OVCAR-3 ovarian
SR leukemia = tested on: SR leukemia
MOLT-4 leukemia = tested on: MOLT-4 leukemia
XF 498 CNS = tested on: XF 498 CNS
SNB-19 CNS = tested on: SNB-19 CNS
EKVX NSCLC = tested on: EKVX NSCLC
NCI-H23 lung = tested on: NCI-H23 lung
UO-31 renal = tested on: UO-31 renal
SK-MEL-2 melanoma = tested on: SK-MEL-2 melanoma
DLD-1 colon = tested on: DLD-1 colon
A549 NSCLC = tested on: A549 NSCLC
786-0 renal = tested on: 786-0 renal
ACHN renal = tested on: ACHN renal
A498 renal = tested on: A498 renal
SNB-75 CNS = tested on: SNB-75 CNS
HL-60(TB) leukemia = tested on: HL-60(TB) leukemia
DMS 273 small cell lung = tested on: DMS 273 small cell lung
UACC-62 melanoma = tested on: UACC-62 melanoma
M14 melanoma = tested on: M14 melanoma
OVCAR-5 ovarian = tested on: OVCAR-5 ovarian
MALME-3M melanoma = tested on: MALME-3M melanoma
U251 CNS = tested on: U251 CNS
TK-10 renal = tested on: TK-10 renal
SF-268 CNS = tested on: SF-268 CNS
RXF 393 renal = tested on: RXF 393 renal
HCT-116 colon = tested on: HCT-116 colon
RXF-631 renal = tested on: RXF-631 renal
HCT-15 colon = tested on: HCT-15 colon
KM12 colon = tested on: KM12 colon
RPMI-8226 leukemia = tested on: RPMI-8226 leukemia
NCI-H226 lung = tested on: NCI-H226 lung
M19-MEL melanoma = tested on: M19-MEL melanoma
KM20L2 colon = tested on: KM20L2 colon
HCC-2998 colon = tested on: HCC-2998 colon

Work on `NC1C2(CCCCCC2)NC(=O)C12CCCCCC2` (stereo unspecified) yielded a TGI (HOP-92 NSCLC) of over 100 µM, a TGI (SK-OV-3 ovarian) of over 100 µM and a TGI (SF-539 CNS) of over 100 µM. The TGI (IGROV1 ovarian) was over 100 µM, the TGI (SK-MEL-5 melanoma) was over 100 µM and the TGI (UACC-257 melanoma) was over 100 µM. For the same compound, the TGI (HOP-62 NSCLC) was over 100 µM, the TGI (NCI-H460 lung) was over 100 µM and the TGI (OVCAR-8 ovarian) was over 100 µM. For the same compound, the TGI (DMS 114 small cell lung) was over 100 µM, the TGI (SN12C renal) was over 100 µM and the TGI (NCI-H522 lung) was over 100 µM. The TGI (SNB-78 CNS) was over 100 µM, the TGI (LOX IMVI melanoma) was over 100 µM and the TGI (CAKI-1 renal) was over 100 µM. The TGI (CCRF-CEM leukemia) was over 100 µM, the TGI (LXFL 529 NSCLC) was over 100 µM and the TGI (HOP-18 NSCLC) was over 100 µM. It also gave a TGI (COLO 205 colon) of over 100 µM, a TGI (HT29 colon) of over 100 µM and a TGI (SF-295 CNS) of over 100 µM. It also gave a TGI (SW-620 colon) of over 100 µM, a TGI (OVCAR-4 ovarian) of over 100 µM and a TGI (SK-MEL-28 melanoma) of over 100 µM. It also gave a TGI (K-562 leukemia) of over 100 µM, a TGI (OVCAR-3 ovarian) of over 100 µM and a TGI (SR leukemia) of over 100 µM. For the same compound, the TGI (MOLT-4 leukemia) was over 100 µM, the TGI (XF 498 CNS) was over 100 µM and the TGI (SNB-19 CNS) was over 100 µM. For the same compound, the TGI (EKVX NSCLC) was over 100 µM, the TGI (NCI-H23 lung) was over 100 µM and the TGI (UO-31 renal) was over 100 µM. For the same compound, the TGI (SK-MEL-2 melanoma) was over 100 µM, the TGI (DLD-1 colon) was over 100 µM and the TGI (A549 NSCLC) was over 100 µM. It also gave a TGI (786-0 renal) of over 100 µM, a TGI (ACHN renal) of over 100 µM and a TGI (A498 renal) of over 100 µM. It also gave a TGI (SNB-75 CNS) of over 100 µM, a TGI (HL-60(TB) leukemia) of over 100 µM and a TGI (DMS 273 small cell lung) of over 100 µM. It also gave a TGI (UACC-62 melanoma) of over 100 µM, a TGI (M14 melanoma) of over 100 µM and a TGI (OVCAR-5 ovarian) of over 100 µM. The TGI (MALME-3M melanoma) was over 100 µM, the TGI (U251 CNS) was over 100 µM and the TGI (TK-10 renal) was over 100 µM. It also gave a TGI (SF-268 CNS) of over 100 µM, a TGI (RXF 393 renal) of over 100 µM and a TGI (HCT-116 colon) of over 100 µM. It also gave a TGI (RXF-631 renal) of over 100 µM, a TGI (HCT-15 colon) of over 100 µM and a TGI (KM12 colon) of over 100 µM.
`COc1cc2c(c(OC)c1OC)-c1ccc(SC)c(=O)cc1C(CC(=O)Oc1ccc([N+](=O)[O-])cc1)C2` (stereo unspecified) was tested, and the TGI (HOP-92 NSCLC) was over 48.3 µM, the TGI (SK-OV-3 ovarian) was over 100 µM and the TGI (SF-539 CNS) was 0.636 µM. It also gave a TGI (IGROV1 ovarian) of over 49.2 µM, a TGI (SK-MEL-5 melanoma) of 13.9 µM and a TGI (UACC-257 melanoma) of over 49.1 µM. It also gave a TGI (HOP-62 NSCLC) of over 100 µM, a TGI (NCI-H460 lung) of 5.78 µM and a TGI (OVCAR-8 ovarian) of 5.08 µM. For the same compound, the TGI (RPMI-8226 leukemia) was over 63 µM, the TGI (DMS 114 small cell lung) was 0.677 µM and the TGI (SN12C renal) was over 43.1 µM. It also gave a TGI (SNB-78 CNS) of 41 µM, a TGI (LOX IMVI melanoma) of 20.2 µM and a TGI (CAKI-1 renal) of over 62.8 µM. The TGI (CCRF-CEM leukemia) was over 100 µM, the TGI (LXFL 529 NSCLC) was over 34.6 µM and the TGI (HOP-18 NSCLC) was over 48.9 µM. It also gave a TGI (COLO 205 colon) of 1.09 µM, a TGI (HT29 colon) of 0.099 µM and a TGI (SF-295 CNS) of over 45.6 µM. The TGI (SW-620 colon) was over 48.7 µM, the TGI (OVCAR-4 ovarian) was over 43.6 µM and the TGI (SK-MEL-28 melanoma) was over 56.6 µM. For the same compound, the TGI (OVCAR-3 ovarian) was 0.905 µM, the TGI (SR leukemia) was over 38 µM and the TGI (MOLT-4 leukemia) was over 100 µM. It also gave a TGI (XF 498 CNS) of 4.73 µM, a TGI (NCI-H226 lung) of 0.865 µM and a TGI (SNB-19 CNS) of over 31.8 µM. For the same compound, the TGI (EKVX NSCLC) was over 100 µM, the TGI (NCI-H23 lung) was 1.88 µM and the TGI (UO-31 renal) was over 100 µM. The TGI (SK-MEL-2 melanoma) was over 48.8 µM, the TGI (DLD-1 colon) was 8.69 µM and the TGI (A549 NSCLC) was over 100 µM. It also gave a TGI (M19-MEL melanoma) of 36.9 µM, a TGI (786-0 renal) of over 37.2 µM and a TGI (ACHN renal) of over 40.5 µM. For the same compound, the TGI (A498 renal) was 0.571 µM, the TGI (SNB-75 CNS) was 0.68 µM and the TGI (HL-60(TB) leukemia) was over 38.2 µM. The TGI (DMS 273 small cell lung) was over 36.9 µM, the TGI (UACC-62 melanoma) was 11.4 µM and the TGI (KM20L2 colon) was 0.465 µM. The TGI (M14 melanoma) was 1.53 µM, the TGI (OVCAR-5 ovarian) was over 100 µM and the TGI (MALME-3M melanoma) was over 65.2 µM. The TGI (U251 CNS) was 1.43 µM, the TGI (TK-10 renal) was over 51.3 µM and the TGI (HCC-2998 colon) was 2.13 µM. For the same compound, the TGI (SF-268 CNS) was 31.4 µM, the TGI (RXF 393 renal) was 0.65 µM and the TGI (HCT-116 colon) was 1.82 µM. For the same compound, the TGI (RXF-631 renal) was 0.052 µM, the TGI (HCT-15 colon) was over 100 µM and the TGI (KM12 colon) was 0.489 µM.
